Results as given in ChEMBL document CHEMBL1125803 (J Med Chem, 1991).
pIC50: −log10 of the molar value. Numbered stars: 1 amine (or outer) side, 2 acyl side, 3 side chain; on linkers, the order of the positions; unused ones are H or OH. Square brackets hold non-standard residues; d marks the D form. Peptide text beside a SMILES is read from it. X1 = O=C([C@@H]1CCCN1CC(O)[C@H](Cc1ccccc1)N[*:1])[*:2]

Legend:
[1] = biological target: T1, Human immunodeficiency virus type 1 protease (Human immunodeficiency virus 1, UniProt Q72874); assay: (§1) Binding activity against HIV-1 Protease
[2] = biological target: T1, Human immunodeficiency virus type 1 protease; assay: as §1; remark: listed apart in the source

## CC[C@H](C)[C@H](NC(=O)[C@@H]1CCCN1C[C@@H](O)[C@H](Cc1ccccc1)NC(=O)[C@H](CC(N)=O)NC(=O)OCc1ccccc1)C(=O)N[C@H](C(=O)OC)C(C)C
[1]
  pIC50: < 7.00
[2]
  pIC50: < 7.00

## CC(C)(C)OC(=O)[C@@H]1CCCN1C[C@@H](O)[C@H](Cc1ccccc1)NC(=O)[C@H](CC(N)=O)NC(=O)OCc1ccccc1
[1]
  pIC50: 6.85
[2]
  pIC50: 6.85

## CC(C)(C)OC(=O)[C@@H]1CCCN1C[C@H](O)[C@H](Cc1ccccc1)NC(=O)[C@H](CC(N)=O)NC(=O)OCc1ccccc1
[1]
  pIC50: 6.52
[2]
  pIC50: 6.52

## CC[C@H](C)[C@H](NC(=O)C1CC2CCCCC2CN1C[C@H](O)[C@H](Cc1ccccc1)NC(=O)[C@H](CC(N)=O)NC(=O)OCc1ccccc1)C(=O)N[C@H](C(=O)OC)C(C)C (stereo partly drawn)
[1]
  pIC50: < 7.00
[2]
  pIC50: < 7.00

## CC[C@H](C)[C@H](NC(=O)[C@@H]1CCCN1C[C@H](O)[C@H](Cc1ccccc1)NC(=O)[C@H](CC(N)=O)NC(=O)OCc1ccccc1)C(=O)N[C@H](C(=O)OC)C(C)C
[1]
  pIC50: 7.89
[2]
  pIC50: 7.89

## CC(C)(C)NC(=O)C1CC2CCCCC2CN1C[C@H](O)[C@H](Cc1ccccc1)NC(=O)[C@H](CC(N)=O)NC(=O)OCc1ccccc1 (stereo partly drawn)
[1]
  pIC50: < 7.00
[2]
  pIC50: < 7.00

## CC(C)(C)NC(=O)C1CC2CCCCC2CN1C[C@@H](O)[C@H](Cc1ccccc1)NC(=O)[C@H](CC(N)=O)NC(=O)OCc1ccccc1 (stereo partly drawn)
[1]
  pIC50: > 8.57
[2]
  pIC50: > 8.57

## CC[C@H](C)[C@H](NC(=O)C1CC2CCCCC2CN1C[C@@H](O)[C@H](Cc1ccccc1)NC(=O)[C@H](CC(N)=O)NC(=O)OCc1ccccc1)C(=O)N[C@H](C(=O)OC)C(C)C (stereo partly drawn)
[1]
  pIC50: < 7.00
[2]
  pIC50: < 7.00

## CC[C@H](C)[C@H](NC(=O)[C@@H]1CCCN1CC(O)[C@H](Cc1ccccc1)NC(=O)[C@H](CC(N)=O)NC(=O)[C@H](CC(C)C)NC(=O)[C@H](CO)NC(C)=O)C(=O)OC (stereo partly drawn) (Ac-SLN[X1]I-OMe)
[1]
  pIC50: 6.38
[2]
  pIC50: 6.38
